What all share (type): in vivo
Data set [1] relates to Green Soldier Stink Bug (Nezara viridula). Briefly: B.1 soybean pod spray test, 3rd instar nymphs. The following applies: 120 h, read-out: mortality in comparison with untreated controls. The method, then: B.1 Green Soldier Stink Bug (Nezara viridula)
The active compound is dissolved at the desired concentration in a mixture of 1:1 (vol:vol) distilled water:acetone. Surfactant (Kinetic HV) is added at a rate of 0.01% (vol/vol). The test solution is prepared at the day of use.
Soybean pods were placed in microwavable plastic cups lined with moist filter paper and inoculated with ten 3rd instar N. viridula. Using a hand atomizer, approximately 2 ml solution is sprayed into each cup. Treated cups were kept at about 28-29° C. and relative humidity of about 50-60%. Percent mortality was recorded after 5 days.

Data set [2] concerns Orchid Thrips (Dichromothrips corbetti). Briefly: B.2 floral-immersion test on orchid petals, adult thrips. As to conditions: 72 h, read-out: mortality in comparison with untreated controls. The method, then:
B.2 Orchid Thrips (Dichromothrips corbetti)
Dichromothrips corbetti adults used for bioassay were obtained from a colony maintained continuously under laboratory conditions. For testing purposes, the test compound is diluted in a 1:1 mixture of acetone:water (vol:vol), plus Kinetic HV at a rate of 0.01% v/v.
Thrips potency of each compound was evaluated by using a floral-immersion technique. All petals of individual, intact orchid flowers were dipped into treatment solution and allowed to dry in Petri dishes. Treated petals were placed into individual re-sealable plastic along with about 20 adult thrips. All test arenas were held under continuous light and a temperature of about 28° C. for duration of the assay. After 3 days, the numbers of live thrips were counted on each petal. The percent mortality was recorded 72 hours after treatment.

Data set [3] relates to Brown Stink Bug (Euschistus heros). Kind of data set: B.3 bean pod spray test, adults. As to conditions: 120 h, read-out: mortality in comparison with untreated controls. How it is done: B.3 Brown Stink Bug (Euschistus heros)
(§1) The active compound is dissolved at the desired concentration in a mixture of 1:1 (vol:vol) distilled water:acetone.
Fresh bean pods were placed in a transparent plastic cup and inoculated with ten adult stage individuals. Insects, food and inside of container are sprayed with 1 ml solution using an air brush. Treated cups were kept at about 25° C. Percent mortality was recorded after 5 days.

For data set [4], the system named is Forest Shield Bug (Eysarcoris aeneus). Kind of data set: B.4 peanut and soybean seed spray test, adults. The following applies: 120 h, read-out: mortality in comparison with untreated controls. How it is done: B.4 Forest Shield Bug (Eysarcoris aeneus)
as §1
Row peanuts and soybean seeds were placed in a plastic cup and inoculated with ten adult stage individuals. Insects, food and inside of container are sprayed with 1 ml solution using an air brush. After drying, a water supply source will be placed in the cup and the cup closed with a screened lid. Treated cups were kept at about 20° C. Percent mortality was recorded after 5 days.

The test system of data set [5] is Rice Leaf Bug (Trigonotylus caelestialium). Kind of data set: B.5 sprayed wheat seedling test, 2nd and 3rd stage nymphs. As to conditions: 120 h, read-out: mortality in comparison with untreated controls. How it is done: B.5 Rice Leaf Bug (Trigonotylus caelestialium)
as §1
Small wheat seedlings in glass tubes were sprayed with 200 microliter/tube by air brush. After drying, ten 2nd and 3rd nymph stage individuals were released in the tube and the tube closed with a screened lid. Treated cups were kept at about 20° C. Percent mortality was recorded after 5 days.

Data set [6] has as its system Brown Stink Bug (Euschistus heros). Briefly: B.6 sprayed soybean seedlings (Intacta and BMX-Potencia), adults. The following applies: for mortality at 10 ppm: Euschistus heros; for mortality at 10 ppm / mortality (%) 1 D.A.A / mortality (%) 2 DAA / mortality (%) 6 DAA / mortality (Abbott %) 1 D.A.A / mortality (Abbott %) 2 DAA / mortality (Abbott %) 6 DAA: Ginkgolide A 100 ppm a.i, Bilobalide 10 ppm a.i; for efficacy on soybean plants with Bacillus thuringiensis toxin trait (INTACTA) versus without (BMX-POTENCIA): comparison of INTACTA with BMX-POTENCIA
The method, then:
B.6 Brown Stink Bug (Euschistus heros)
as §1
Soybean seedlings of Intacta and BMX-Potencia with one pair of true leaves were sprayed with 2 ml solution using an airbrush. After dry, the plants in small pots were placed inside a transparent plastic cage and infested with 10 adults adult stage individuals. Treated cups were kept at about 25° C. Percent mortality was recorded after 1, 2, and 6 days after application.
• Corrected mortality according to Abbott, W. S., A method of computing the effectiveness of an insecticide, J. Econ. Entomal., 18 (1925) 265-267.

For data set [7], the system named is Green Soldier Stink Bug (Nezara viridula). Kind of data set: B.7 soil drench on lima bean plants, 2nd instar nymphs. As to conditions: read-out: mortality in comparison with untreated controls. How it is done: B.7 Green Soldier Stink Bug (Nezara viridula)
Lima Bean (Phaseolus lunatus, ‘Henderson Bush,’ Lot #—VR06650) plants were transplanted at the two true-leaf stage into 25.8 cm^2 pots filled with sifted (No. 10 sieve) North Carolina loamy sand soil. Pots were held in the greenhouse and watered daily until treatment. Three days after transplant, the compounds were dissolved in acetone and then diluted with water for a final concentration of 50% acetone. Treatments were applied as a drench in 1 ml solution per plant. Plants were held in an environmental chamber (25±2° C., 24 L) and watered as needed for the duration of the test.
Three days after treatment, plants were infested with five 2nd instar nymphs. Plants were covered with organza fabric bags to prevent escape. Four days after infestation, the number of live nymphs on each plant was recorded, and means were calculated for each treatment. The percent control was calculated as the percent mortality relative to the solvent blank.

Data set [8] has the same test system. Briefly: B.8 lima bean seed treatment, 2nd instar nymphs. The following applies: 0.063 mg ai/seed, infested ten days after treatment, read four days after infestation. The method, then:
B.8 Green Soldier Stink Bug (Nezara viridula)
Pots (25.8 cm^2) were filled with a 1:1 mixture of sifted (No. 10 sieve) North Carolina loamy sand soil and play sand. Technical material was dissolved in DMSO in a 20 ml scintillation vial. A total application volume of 25 μl of solution was added to a 20 ml vial, ten lima bean seeds (P. lunatus) were added, and the vial was vortexed for 1 minute. Seeds were allowed to dry and planted at a depth of 2 cm later the same day. One seed was planted per pot. Pots were held in the greenhouse and watered daily until infestation.
Ten days after treatment, plants were infested with five 2nd instar nymphs. Plants were covered with organza fabric bags to prevent escape. Plants were held in an environmental chamber (25±2° C., 24 L) and watered as needed.
Four days after infestation, the number of live nymphs on each plant was recorded, and means were calculated for each treatment. The percent control was calculated as the percent mortality relative to the solvent blank.

Like-named read-outs stand apart in the source and are kept apart here.

The mortality is the percentage killed. `CC(C)(C)[C@]1(O)C[C@@H]2OC(=O)C[C@@]23C(=O)O[C@@H]2OC(=O)[C@H](O)[C@]213` [Bilobalide, (3aS,5aR,8aS,9R,10aR)-9-tert-butyl-8,9-dihydroxydihydro-9H-furo[2,3-b]furo[3′,2′;2,3]cyclopenta[1,2-c]furan-2,4,7(3H,8H)-trione]: the mortality at 10 ppm in data set [1] was no less than 75%; in data set [6] (24 h, read-out: mortality (%) 1 D.A.A, BMX - POTENCIA soybean, 1 day after application), 5%; in data set [6] (24 h, read-out: mortality (%) 1 D.A.A, INTACTA soybean, 1 day after application), 7.5%; in data set [6] (24 h, read-out: mortality (Abbott %) 1 D.A.A, BMX - POTENCIA soybean, corrected according to Abbott, 1 day after application), 2.6%; in data set [6] (24 h, read-out: mortality (Abbott %) 1 D.A.A, INTACTA soybean, corrected according to Abbott, 1 day after application), 2.6%; in data set [6] (48 h, read-out: mortality (%) 2 DAA, BMX - POTENCIA soybean, 2 days after application), 7.5%. For the same compound, the mortality at 10 ppm in data set [6] (48 h, read-out: mortality (%) 2 DAA, INTACTA soybean, 2 days after application) came out at 20%; in data set [6] (48 h, read-out: mortality (Abbott %) 2 DAA, BMX - POTENCIA soybean, corrected according to Abbott, 2 days after application) it was 2.6%; in data set [6] (48 h, read-out: mortality (Abbott %) 2 DAA, INTACTA soybean, corrected according to Abbott, 2 days after application) it was 15.8%; in data set [6] (144 h, read-out: mortality (%) 6 DAA, BMX - POTENCIA soybean, 6 days after application), 60%; in data set [6] (144 h, read-out: mortality (%) 6 DAA, INTACTA soybean, 6 days after application) it was 72.5%; in data set [6] (144 h, read-out: mortality (Abbott %) 6 DAA, BMX - POTENCIA soybean, corrected according to Abbott, 6 days after application), 50%. Moreover, in data set [6] (144 h, read-out: mortality (Abbott %) 6 DAA, INTACTA soybean, corrected according to Abbott, 6 days after application), the mortality at 10 ppm came to 65.6%. Moreover, the mortality at 100 ppm in data set [1], in data set [3], in data set [4] and in data set [5] was no less than 75% in each case. The mortality at 300 ppm in data set [1] was no less than 75%. For the same compound, the mortality at 500 ppm in data set [1] and in data set [2] was no less than 75% each time. Besides, in data set [6], the “efficacy on soybean plants with Bacillus thuringiensis toxin trait (INTACTA) versus without (BMX-POTENCIA)” value is “higher efficacy”. Moreover, in data set [7], the mortality at 300 g/ha is no less than 75%.
Regarding `C[C@@H]1C(=O)O[C@H]2C[C@@]34[C@H]5C[C@@H](C(C)(C)C)[C@]36[C@@H](OC(=O)[C@@H]6O)O[C@@]4(C(=O)O5)[C@]21O` [Ginkgolide A], the “mortality (%) 1 D.A.A” value is given as 10.0% in data set [6] (BMX - POTENCIA soybean, 1 day after application) and 12.5% in data set [6] (INTACTA soybean, 1 day after application). Also, the “mortality (%) 2 DAA” value in data set [6] (BMX - POTENCIA soybean, 2 days after application) is listed as 10.0%; in data set [6] (INTACTA soybean, 2 days after application), 20.0%. Further, the “mortality (%) 6 DAA” value in data set [6] (BMX - POTENCIA soybean, 6 days after application) was determined as 57.5%; in data set [6] (INTACTA soybean, 6 days after application), 62.5%. In addition, the “mortality (Abbott %) 1 D.A.A” value in data set [6] (BMX - POTENCIA soybean, corrected according to Abbott, 1 day after application) is 7.7%; in data set [6] (INTACTA soybean, corrected according to Abbott, 1 day after application) it was 7.9%. The “mortality (Abbott %) 2 DAA” value is reported as 5.3% in data set [6] (BMX - POTENCIA soybean, corrected according to Abbott, 2 days after application) and 15.8% in data set [6] (INTACTA soybean, corrected according to Abbott, 2 days after application). In addition, the “mortality (Abbott %) 6 DAA” value in data set [6] (BMX - POTENCIA soybean, corrected according to Abbott, 6 days after application) is recorded as 46.9%; in data set [6] (INTACTA soybean, corrected according to Abbott, 6 days after application), 53.1%. Besides, the “efficacy on soybean plants with Bacillus thuringiensis toxin trait (INTACTA) versus without (BMX-POTENCIA)” value in data set [6] is given as “higher efficacy”. Also, in data set [8], the “mortality in comparison with untreated controls” value is “at least 75%”.

Source of the values: patent US10165778B2, “Method for controlling pests in soybean” (BASF SE, priority 2014, dated 2019).
